Measurements as given in patent publication US11266715B2, “C3A receptor agonists for use against ischemic brain injury, stroke, traumatic brain injury, spinal cord injury and neurodegenerative disorders” (priority 2016, dated 2022).

What was measured:
microglia and astrocytes = details: in vitro; cited from earlier work
[1] = test system: WT mice subjected to photothrombotic stroke in the motor cortex; test: Cylinder test (spontaneous forelimb asymmetry) after photothrombotic stroke; type: in vivo, mouse
Procedure: Cortical photothrombosis was induced using the Rose Bengal method (Lee et al., 2007; Watson et al., 1985) with some modifications. Anesthesia was induced with isoflurane (Forene®, Abbott) in air and oxygen (1:1) initially at 5% and reduced to 2.5% during the surgical procedure. Body temperature was monitored by a rectal probe and maintained at 37° C. using a homeothermic control unit (Harvard Apparatus). Anesthetized mice were placed in a stereotaxic frame, the skull was exposed through a midline scalp incision and Rose Bengal (200 μl, 10 mg/ml solution in sterile saline, Sigma) was injected intraperitoneally. After 5 min, the skull and underlying brain tissue were illuminated for 12 min by a 2 mm diameter cold laser beam (50 mW, 561 nm; Cobolt AB) positioned at AP +0.5 mm and ML −2.7 mm relative to Bregma, targeting the border between left primary somatosensory and motor cortex (Porritt et al., 2012). For intervention experiments targeting motor cortex, stroke was induced as above with the following modifications: Transcranial illumination lasting 15 min was delivered using cold light source (LQ1600, Fiberoptic-Heim AG) equipped with 2 mm wide fiber optic probe and directed to AP +0 and ML −1.5 relative to Bregma. After illumination, the scalp was sutured and mice were placed in a warm cage for 45 min to recover from anesthesia prior to being returned to the home cage. Mice were provided with moist mashed food placed on the floor of the home cage and their weight was monitored daily for 7 days after surgery. There were no significant differences in body weight, body temperature (36.5±0.5° C.), duration of surgery, or post-stroke mortality between cohorts. Each cohort contained an even distribution of mice from the matched strains or treatment groups.
Purified human C3a peptide (Complement Technologies) was diluted in sterile phosphate buffered saline (PBS) to a concentration of 200 nM and a total of 20 μl (10 μl/nostril; corresponding to approximately 1.13 μg/kg body weight) of peptide solution or PBS was given intranasally to awake, hand-restrained mice held in a supine position. Solutions were administered through a pipette tip, drop-wise in 5 μl portions divided by 1 min intervals to allow for absorption. C3a or PBS was given every 24 hours on days 7 to 21 post-stroke for the short-term study or on days 7 to 28 post-stroke for the long-term study. Mice were assigned to C3a or PBS treatment using randomization stratified by body weight to avoid potential confounding effects of body weight on behavioural performance. The investigators carrying out behavioural studies and analysing data were blinded to treatment group. For the assessment of potential systemic anaphylactic response due to intranasal C3a inoculation, body temperature was monitored using a rectal temperature probe (Harvard Apparatus) inserted approximately 4 mm into the rectum of awake mice restrained by the scruff. Baseline temperature was taken before intranasal administration and 5, 15, 30, 45 and 75 min after C3a or PBS administration.
Functional impairment of mice treated intranasally with C3a or vehicle was assessed using a modified cylinder test and a grid walking task to closely evaluate forepaw function. Mice were tested once on each task one week before stroke induction to establish baseline performance. Next, they were tested on days 7, 14 and 21 (short-term study) or days 7, 14, 28, 42 and 56 (long-term study) post-stroke. […]

[2] = test system: WT mice subjected to photothrombotic stroke in the motor cortex; test: Infarct volume after photothrombotic stroke, intranasal treatment; type: in vivo, mouse; details: intranasal C3a daily days 7-21 post-stroke vs PBS; P=0.429
Procedure: Cortical photothrombosis was induced using the Rose Bengal method (Lee et al., 2007; Watson et al., 1985) with some modifications. Anesthesia was induced with isoflurane (Forene®, Abbott) in air and oxygen (1:1) initially at 5% and reduced to 2.5% during the surgical procedure. Body temperature was monitored by a rectal probe and maintained at 37° C. using a homeothermic control unit (Harvard Apparatus). Anesthetized mice were placed in a stereotaxic frame, the skull was exposed through a midline scalp incision and Rose Bengal (200 μl, 10 mg/ml solution in sterile saline, Sigma) was injected intraperitoneally. […] Mice were provided with moist mashed food placed on the floor of the home cage and their weight was monitored daily for 7 days after surgery. […]
Purified human C3a peptide (Complement Technologies) was diluted in sterile phosphate buffered saline (PBS) to a concentration of 200 nM and a total of 20 μl (10 μl/nostril; corresponding to approximately 1.13 μg/kg body weight) of peptide solution or PBS was given intranasally to awake, hand-restrained mice held in a supine position. […] For the assessment of potential systemic anaphylactic response due to intranasal C3a inoculation, body temperature was monitored using a rectal temperature probe (Harvard Apparatus) inserted approximately 4 mm into the rectum of awake mice restrained by the scruff. […]

## C3a: Purified human C3a peptide (Complement Technologies), C3a receptor agonist, amino acid sequence SEQ ID NO: 1
Microglia and astrocytes
  NGF expression: induces upregulation of neural growth factor (NGF)
[1]; long-term study, day 56, Sidak's test P=0.0687
  cylinder task average scores on last day of testing, C3a vs PBS: only a trend toward a difference between groups
[1]; long-term study, Dunnett's test P=0.032 and P=0.0019
  cylinder task performance at days 28 and 56 vs day 7: sustained functional improvement
[1]; long-term study, paired t-test P=0.009
  mice that improved affected paw usage between day 7 and day 56: 8/10
[1]; short-term study, C3a days 7-21, n=10 mice/group
  right paw use for body support, course between days 7 and 21: continuous improvement
[1]; short-term study, P=0.062
  frequency of right paw use on day 21 vs baseline: did not differ from baseline performance
[2]
  infarct volume: no effect on infarct volume
